Where two headings read alike, the source gives them in different places.
Legend:
C. albicans CaCi-2 [1] = assay: CaCi-2 growth inhibition in the presence of 8 μg/ml fluconazole (Alamar Blue); format: cell-based, Candida albicans
Protocol: Fluconazole was obtained from Sequoia Research Products, Ltd. and prepared in a 2 mg/ml stock solution in phosphate buffered saline (PBS). […] PBS (Catalog No. 21-040-CV) without calcium and magnesium was obtained from Cellgro. Penicillin/Streptomycin (Pen/Strep) was obtained from Gibco and prepared 100× in PBS.
RPMI medium (1×) was prepared by dissolving 10.4 g powdered medium in 800 ml water. A buffer of 34.52 g MOPS was added. While stirring, pH was adjusted to 7.0 with 10 N NaOH. Next, 10 ml uridine solution and 50 ml glucose solution were added. The final volume was adjusted to 1000 ml, and filter sterilized.
The following yeast strains were used in this study: C. albicans CaCi-2. Fungal inoculum was prepared as follows: 500 μl of strain was inoculated from cryopreserved stock into a 250-ml shaker flask containing 30 ml growth medium and shaken overnight at 30° C. The optical density (OD 600) of 1 ml fungal culture in a cuvette was read using a standard optical density reader (Eppendorf BioPhotometer Plus), with growth medium as a background blank. The desired volume of fungal inoculums was diluted to desired volume of fungal inoculums according to the following formula: (1/OD measured)×(Desired Final Volume of Inoculum)×0.3=Volume of fungal culture (μl) to add to desired volume of growth medium. When added to media in wells, this yields a calculated starting OD of the fungal inoculum of 0.00015.
Fluconazole stock solution was added to the fungal inoculum to achieve 8 μg/ml. Pen/Strep was added to the media to a 1% concentration (v/v). A Thermo Combi nL was used to dispense 20 μl/well of assay media into all wells. Geldanamycin was dispensed in positive control wells using Thermo Combi nL for a final concentration of 3 μM. Then, 100 nl of test compound was pinned from compound plates into assay plates using a CyBi-Well pin tool. A further 20 μl/well of culture was dispensed into the assay media in all wells. The plates were incubated in a humidified (90% humidity) Liconic incubator at 37° C. without agitation for 48 hours. Alamar Blue was diluted 1:40 in Ca/Mg-free PBS. To all plates, […] of the diluted Alamar Blue was added to the plates to a final dilution factor of 1:200. The plates were incubated for an additional 2 hours. Then, Relative Fluorescence Intensity (RFU) of each well was read on standard plate reader as a measure of relative fungal growth.

C. albicans CaCi-8 = assay: microbe, parasite or virus in culture; format: cell-based, Candida albicans
Protocol: This subset was re-subjected to the primary assay and was also tested concurrently in two secondary assays. Secondary assay 1 measured chemosensitization of the more resistant CaCi-8 strain. Secondary assay 2 eliminated anything with inherently antifungal activity. […] A final assay (secondary assay 3) was incorporated to discard any compound displaying toxicity to mammalian fibroblasts. […] This screening campaign is also illustrated in FIG. 3B.
Those that inhibited growth in the resistant strain were also tested for toxicity against Candida in the absence of fluconazole and for toxicity against mammalian cells using a fluorescence reporter assay. The positive control for screening in the Candida and mammalian cell assays was the Hsp90 inhibitor geldanamycin (acting in concert with fluconazole; FIG. 4). Compounds that passed these four hurdles were binned through use of a Saccharomyces assay to determine whether the mechanism of action might be through the Hsp90 pathway, the calcineurin pathway, or an uncategorized mechanism.

Plasma stability = settings: % remaining in human plasma after a 5-hour incubation
Plasma protein binding = settings: % bound in human plasma
C. albicans CaCi-2 [2] = assay: Secondary single-agent (no-fluconazole) activity assay; format: cell-based, Candida albicans; settings: in the absence of fluconazole; read-out: Target Potency (μM) Mean ± S.E.M CaCi-2^b IC50
Protocol: Clear, flat-bottom, black, 384-well plates were obtained from Corning. […] Pen/Strep was obtained from Gibco and prepared 100× in PBS. Fluconazole was obtained from Sigma and prepared in 2 mg/ml stock solution in PBS. Alamar Blue was obtained from Biosource International (Catalog No. DAL1100). Phosphate buffered solution (PBS) without calcium and magnesium was obtained from Cellgro.
Fungal inoculum was prepared as follows: 500 μl of yeast was inoculated from cryopreserved stock into a 250-ml shaker flask containing 30 ml growth medium and shaken overnight (16 hours) at 30° C. The culture was spun down, and the broth was poured off and washed with RPMI medium. The culture was spun down again, and the broth was poured off and resuspended in RPMI medium. The OD 600 of 1 ml of fungal culture in a cuvette was read using a standard optical density reader with growth medium as a background blank. The desired volume of fungal inoculum was diluted to starting OD of the fungal inoculum of 0.00015 A600.
Pen/Strep was added to the media to a final 1% concentration. A Combi NL (Thermo) was used to dispense 20 μl/well of assay media into all wells. Geldanamycin (1.5 mM) and fluconazole (0.2 mg/ml) were mixed for the positive control. Then, 80 nl of positive control solution was dispensed into the positive control wells using Thermo Combi nL for a final concentration of 3 μM geldanamycin and 8 μg/ml fluconazole. Then, 100 nl of test compound were pinned from the compound plates into assay plates using a CyBi-Well pin tool. A further 20 μl/well of RPMI synthetic defined medium culture was dispensed into 384-well, black plates. Fungal suspension (20 μl/well) was dispensed into all wells. The plates were incubated in a humidified (90% humidity) Liconic incubator at 37° C. without agitation for 48 hours. Alamar Blue Reagent was diluted 1:40 in Ca/Mg-free PBS. To all plates, 6.4 μl/well of the diluted Alamar Blue was added to the plates to a final dilution factor of 1:200. The plates were incubated for 2 hours at room temperature. Next, RFU of wells was read on a standard plate reader as a measure of relative fungal growth.

[3] = 37° C., 48 hours, with 8 μg/mL (26 μM) fluconazole, average of at least three experiments
[4] = 37° C., 48 hours, with 8 μg/mL (26 μM) fluconazole, average of at least three experiments, read-out: CaCi-2 IC50
[5] = 37° C., 48 hours, with 8 μg/mL (26 μM) fluconazole, average of at least three experiments, read-out: CaCi-8 IC50
[6] = Table 12, read-out: CaCi-8 IC50 with 8 μg/ml fluconazole
[7] = in the presence of fluconazole, read-out: Target Potency (μM) Mean ± S.E.M CaCi-8^a IC50

Row | SMILES | CaCi-2 IC50 (μM) (C. albicans CaCi-2 [1]; [3]) | CaCi-8 IC50 (μM) (C. albicans CaCi-8; [3]) | IC50 (C. albicans CaCi-2 [1]; [4]) [µM] | other results
1 | COC(=O)Cn1nc(-c2ccccc2)c2cccnc21 | inactive | inactive |  | 
2 | COC(=O)Cn1nc(C(C)(C)C)c2ccccc21 | inactive | inactive |  | 
3 | COC(=O)Cn1nc(C2CC2)c2ccccc21 | inactive | Inactive |  | 
4 | COC(=O)Cn1nc(C2CCCCC2)c2ccccc21 |  |  | 2.3 ± 0.3 | IC50 (C. albicans CaCi-8; [5]): 6 ± 1.7 µM
5 | COC(=O)Cn1nc(-c2cnco2)c2ccccc21 | inactive | inactive |  | 
6 | COC(=O)Cn1nc(-c2cscn2)c2ccccc21 |  | inactive | 12.9 ± 1.7 | 
7 | COC(=O)Cn1nc(-c2cccc(C)c2)c2ccccc21 [CID 49835823] |  |  |  | IC50 (C. albicans CaCi-2 [1]; in the presence of fluconazole, read-out: CaCi-2 growth inhibition IC50): 0.65 µM; IC50 (C. albicans CaCi-8; [6]): 1.3 µM
8 | COC(=O)Cn1nc(-c2cccc(F)c2)c2ccccc21 [CID 49835858] |  |  |  | IC50 (C. albicans CaCi-2 [1]; Table 12, read-out: CaCi-2 IC50 with 8 μg/ml fluconazole): 1.4 µM; IC50 (C. albicans CaCi-8; [6]): 2.1 µM
9 | COC(=O)Cn1nc(-c2ccccc2)c2cc(F)ccc21 [Compound 5-F] |  | inactive | 11.2 ± 7.2 | 
10 | COC(=O)Cn1nc(-c2ccccc2)c2cc(C)ccc21 [Compound 5-Me] |  |  | 5.2 ± 2.2 | IC50 (C. albicans CaCi-8; [5]): 8.2 ± 3.2 µM
11 | COC(=O)Cn1nc(-c2ccccc2)c2cc(OC)ccc21 [Compound 5-OMe] |  |  | 14.9 ± 5.7 | IC50 (C. albicans CaCi-8; [5]): 22.1 ± 6.2 µM
12 | COC(=O)Cn1nc(-c2ccccc2)c2ccc(C(F)(F)F)cc21 [Compound 6-CF3] | inactive | inactive |  | 
13 | COC(=O)Cn1nc(-c2ccccc2)c2ccc(C#N)cc21 [Compound 6-CN] | inactive | inactive |  | 
14 | COC(=O)Cn1nc(-c2ccccc2)c2ccc(Cl)cc21 [Compound 6-Cl] |  |  | 4 ± 1.3 | IC50 (C. albicans CaCi-8; [5]): 8.4 ± 0.5 µM
15 | COC(=O)Cn1nc(-c2ccccc2)c2ccc(C)cc21 [Compound 6-Me] |  | inactive | 5.9 ± 3.1 | 
16 | COC(=O)Cn1nc(-c2ccccc2)c2ccc(OC)cc21 [Compound 6-OMe] |  |  | 9.5 ± 2.5 | IC50 (C. albicans CaCi-8; [5]): 12.4 ± 0.5 µM
17 | COC(=O)Cn1nc(-c2ccccc2)c2cccc(C(F)(F)F)c21 [Compound 7-CF3] | inactive | inactive |  | 
18 | COC(=O)Cn1nc(-c2ccccc2)c2cc(OC)ccc21 [Compound 49835837] |  |  |  | Plasma Stability (Plasma stability): PBS Solubility: <1.0 μM Plasma Protein Binding: <1.0% Plasma Stability: <1.0% Purity (UPLC): >99%; IC50 (C. albicans CaCi-8; [7]): 18.5 µM; Plasma Protein Binding (Plasma protein binding): PBS Solubility: <1.0 μM Plasma Protein Binding: <1.0% Plasma Stability: <1.0% Purity (UPLC): >99%; IC50 (C. albicans CaCi-2 [2]): > 26 µM
19 | CC(C)(C)OC(=O)Cn1nc(-c2ccccc2)c2ccccc21 [Compound 49835839] |  |  |  | Plasma Stability (Plasma stability): 85%; IC50 (C. albicans CaCi-8; [7]): > 26 µM; Plasma Protein Binding (Plasma protein binding): > 99%; IC50 (C. albicans CaCi-2 [2]): > 26 µM
20 | CCCCn1nc(-c2ccccc2)c2ccccc21 [Compound 49835848] |  |  |  | Plasma Stability (Plasma stability): 81%; IC50 (C. albicans CaCi-8; [7]): > 26 µM; Plasma Protein Binding (Plasma protein binding): > 99%; IC50 (C. albicans CaCi-2 [2]): > 26 µM

Reference: patent publication US9738610B2, “Indazole derivatives and uses thereof” (Whitehead Institute for Biomedical Research, priority 2012, dated 2017)
